Measurements as given in PubChem BioAssay (NCI).
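Assay format: 96-well plates, 48-hour exposure. TGI: total growth inhibition.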

How the values were obtained:
Assay in all cases: inhibition of tumour cell growth, NCI panel, 48 h
[1] = system: 786-0 renal
[2] = system: A498 renal
[3] = system: A549 NSCLC
[4] = system: ACHN renal
[5] = system: CAKI-1 renal
[6] = system: CCRF-CEM leukemia
[7] = system: COLO 205 colon
[8] = system: DLD-1 colon
[9] = system: DMS 114 small cell lung
[10] = system: DMS 273 small cell lung
[11] = system: EKVX NSCLC
[12] = system: HCC-2998 colon
[13] = system: HCT-116 colon
[14] = system: HCT-15 colon
[15] = system: HL-60(TB) leukemia
[16] = system: HOP-18 NSCLC
[17] = system: HOP-62 NSCLC
[18] = system: HOP-92 NSCLC
[19] = system: HT29 colon
[20] = system: IGROV1 ovarian
[21] = system: K-562 leukemia
[22] = system: KM12 colon
[23] = system: KM20L2 colon
[24] = system: LOX IMVI melanoma
[25] = system: LXFL 529 NSCLC
[26] = system: M14 melanoma
[27] = system: M19-MEL melanoma
[28] = system: MALME-3M melanoma
[29] = system: MOLT-4 leukemia
[30] = system: NCI-H226 lung
[31] = system: NCI-H23 lung
[32] = system: NCI-H460 lung
[33] = system: NCI-H522 lung
[34] = system: OVCAR-3 ovarian
[35] = system: OVCAR-4 ovarian
[36] = system: OVCAR-5 ovarian
[37] = system: OVCAR-8 ovarian
[38] = system: RPMI-8226 leukemia
[39] = system: RXF 393 renal
[40] = system: RXF-631 renal
[41] = system: SF-268 CNS
[42] = system: SF-295 CNS
[43] = system: SF-539 CNS
[44] = system: SK-MEL-2 melanoma
[45] = system: SK-MEL-28 melanoma
[46] = system: SK-MEL-5 melanoma
[47] = system: SK-OV-3 ovarian
[48] = system: SN12C renal
[49] = system: SNB-19 CNS
[50] = system: SNB-75 CNS
[51] = system: SNB-78 CNS
[52] = system: SR leukemia
[53] = system: SW-620 colon
[54] = system: TK-10 renal
[55] = system: U251 CNS
[56] = system: UACC-257 melanoma
[57] = system: UACC-62 melanoma
[58] = system: UO-31 renal
[59] = system: XF 498 CNS

For `CCOc1ccc(Nc2nc(C)c(C(=O)/C=C/c3ccc(Cl)cc3Cl)s2)cc1`, which TGI [1] is on record?
The TGI was 36.3 µM.

What about the TGI [2] of the same compound?
The TGI was 50.5 µM.

And the TGI [3]?
Its TGI is 45.9 µM.

And the TGI [4]?
The TGI was 71 µM.

What about the TGI [5] of the same compound?
The TGI was 55.4 µM.

And the TGI [6]?
Its TGI is 80.2 µM.

And the TGI [7]?
Its TGI is 32.3 µM.

And the TGI [8]?
Its TGI is 84.5 µM.

And the TGI [9]?
Its TGI is 56.5 µM.

And the TGI [10]?
Its TGI is 45 µM.

What about the TGI [11] of the same compound?
The TGI was 85.7 µM.

What about the TGI [12] of the same compound?
The TGI was 43.9 µM.

And the TGI [13]?
The TGI was 38.3 µM.

And the TGI [14]?
Its TGI is 48.6 µM.

And the TGI [15]?
The TGI was 65.6 µM.

And the TGI [16]?
The TGI was 66.7 µM.

And the TGI [17]?
The TGI was 81.3 µM.

And the TGI [18]?
The TGI was 68.3 µM.

And the TGI [19]?
Its TGI is 39.4 µM.

And the TGI [20]?
The TGI was 85.1 µM.

What about the TGI [21] of the same compound?
Its TGI is 93.5 µM.

And the TGI [22]?
The TGI was 33.5 µM.

What about the TGI [23] of the same compound?
The TGI was 52.2 µM.

And the TGI [24]?
Its TGI is 31.8 µM.

And the TGI [25]?
Its TGI is 37.5 µM.

What about the TGI [26] of the same compound?
Its TGI is 50.1 µM.

And the TGI [27]?
The TGI was 47.4 µM.

And the TGI [28]?
Its TGI is 62.7 µM.

What about the TGI [29] of the same compound?
The TGI was 51.5 µM.

And the TGI [30]?
The TGI was 36.9 µM.

What about the TGI [31] of the same compound?
The TGI was 44.1 µM.

What about the TGI [32] of the same compound?
The TGI was 42.6 µM.

And the TGI [33]?
Its TGI is 43.2 µM.

What about the TGI [34] of the same compound?
Its TGI is 41 µM.

What about the TGI [35] of the same compound?
Its TGI is 28.7 µM.

And the TGI [36]?
Its TGI is greater than 100 µM.

What about the TGI [37] of the same compound?
Its TGI is 40.7 µM.

And the TGI [38]?
Its TGI is greater than 100 µM.

What about the TGI [39] of the same compound?
The TGI was 40.6 µM.

And the TGI [40]?
Its TGI is 54.8 µM.

What about the TGI [41] of the same compound?
Its TGI is 77.3 µM.

What about the TGI [42] of the same compound?
Its TGI is 38.5 µM.

And the TGI [43]?
The TGI was 78.8 µM.

And the TGI [44]?
The TGI was 61.6 µM.

And the TGI [45]?
Its TGI is 51 µM.

What about the TGI [46] of the same compound?
The TGI was 38.8 µM.

And the TGI [47]?
The TGI was 54.3 µM.

And the TGI [48]?
The TGI was 37.1 µM.

What about the TGI [49] of the same compound?
The TGI was greater than 100 µM.

What about the TGI [50] of the same compound?
Its TGI is 39.3 µM.

What about the TGI [51] of the same compound?
The TGI was 67.9 µM.

What about the TGI [52] of the same compound?
Its TGI is 71.2 µM.

And the TGI [53]?
The TGI was 38.7 µM.

What about the TGI [54] of the same compound?
The TGI was 52.6 µM.

What about the TGI [55] of the same compound?
The TGI was 37.9 µM.

What about the TGI [56] of the same compound?
Its TGI is 53.8 µM.

What about the TGI [57] of the same compound?
The TGI was 77.4 µM.

And the TGI [58]?
The TGI was 51 µM.

What about the TGI [59] of the same compound?
The TGI was 39.1 µM.
